These are literature values, as cited in patent EP1587517B1, “ANTI-PROTOZOAL COMPOSITIONS COMPRISING DICLAZURIL” (JANSSEN PHARMACEUTICA N.V., priority 2003, dated 2004).

The structures appear in SMILES notation. ≈ marks a conversion by molar mass, not a printed value. Where two headings read alike, the source gives them in different places.

In general, solubility refers to the dissolved amount per volume that the medium holds. In the case of `N#CC(c1ccc(Cl)cc1)c1c(Cl)cc(-n2ncc(=O)[nH]c2=O)cc1Cl` (stereo not shown) [diclazuril], the solubility is 32.6 mg/mL (≈ 80 mM) (N,N-dimethylformamide), 48 mg/mL (≈ 118 mM) (dimethyl sulphoxide) and 8.2 mg/mL (≈ 20.1 mM) (tetrahydrofuran). Besides, the “saturation concentrations in water” value (water) is reported as “below 1 µg/L”.
